Measurements published in patent publication US11020405B2, “Method for prevention or treatment of diabetic complications” (KANGWON NATIONAL UNIVERSITY UNIVERSITY-INDUSTRY COOPERATION …, priority 2017, dated 2021).

How the values were obtained:
VE-cadherin = experiment: Analysis of adherens junction (VE-cadherin staining); format: cell-based, human; conditions: HRECs, 10 ng/mL VEGF 90 min with 20 μM midazolam, 5 μM BAPTA-AM, 1 mM NAC, 0.5 μM Trolox, 50 μM cystamine or 20 μM MDC (FIGS. 5, 6)
Experimental: Purchased from Applied Cell Biology Research Institute (Cell Systems, Kirkland, Wash.), human retinal endothelial cells (HRECs) were cultured in an M19 medium, containing 20% FBS, 3 ng/mL bFGF, 5 U/mL heparin, 100 U/mL penicillin and […], in a 2% gelatin-coated plate.
Before the following Test Examples 2 to 7, the HRECs were cultured for 6 hr in a medium containing 1% FBS and an antibiotic agent, thus preparing HRECs of Test Example 1.
The HRECs of Test Example 1 were subjected to the respective treatments below and cultured for 30 min. Here, treatment with 10 ng/mL VEGF was performed for 90 min. Thereafter, the HRECs were treated with 1 mM 5-(biotinamido)pentylamine, incubated for 1 hr, fixed with 3.7% formaldehyde, treated with 0.2% triton X-100, treated with a blocking solution containing 138 mM NaCl, 0.1% Tween 20 and 2% BSA dissolved in a 20 mM Tris (pH 7.6) buffer, incubated for 30 min, incubated with a monoclonal VE-cadherin antibody (1:200; Santa Cruz Biotechnology) for 12 hr or more (overnight), incubated with a FITC-conjugated goat anti-mouse antibody (1:200; Sigma-Aldrich), and then measured using confocal microscopy. Some (the following i), iii), iv), vi), ix)) of the results are shown in FIG. 5 and the VE-cadherin concentrations in the portions represented by the dotted lines in FIG. 5 are shown in FIG. 6. With reference to FIG. 6, 10 randomly selected cells were measured to determine the fluorescence intensity of single cells and thus quantify VE-cadherin.
VE-cadherin, which is a protein that mediates adherens junction, was analyzed to evaluate adherens junction.

[1] = test system: endothelial monolayer of HRECs; experiment: Analysis of cell permeability (FITC-dextran, Transwell); format: cell-based, human; conditions: HREC monolayer, 10 ng/mL VEGF 90 min with 20 μM midazolam, 5 μM BAPTA-AM, 1 mM NAC, 0.5 μM Trolox, 50 μM cystamine or 20 μM MDC; 40 kDa FITC-dextran 60 min (FIG. 7)
Experimental: The HRECs were cultured (e.g. about 5 days) until the cell confluence thereof reached an appropriate level on gelatin-coated 0.4 μm polycarbonate membranes of Transwell Permeable Supports (Costar, Corning, N.Y.), followed by the respective treatments below and culture for 30 min. Here, treatment with 10 ng/mL VEGF was performed for 90 min. Thereafter, the HRECs were treated with 1 mg/mL 40 kDa FITC-dextran (Sigma-Aldrich), incubated for 60 min, after which the amount of FITC-dextran that was diffused into the lower chamber through the endothelial monolayer of HERCs was measured using a microplate spectrofluorometer (Molecular Devices, Sunnyvale, Calif.).

retinas of diabetic mice = experiment: Analysis of ROS concentration in retinas of diabetic mouse model (DHE); format: in vivo, C57BL/6 mice; conditions: intravitreal 2 μL of 2 mM midazolam, 2 μM Trolox or 500 mM NAC (FIGS. 12, 13)
Experimental: 6-week-old male C57BL/6 mice (DBL, EumSeong, Korea) were administered with streptozotocin (Sigma-Aldrich) dissolved in a 100 mM citrate buffer (pH 4.5) through intraperitoneal injection in an amount of 150 mg each per kg of mouse weight to give diabetic mouse models. In the diabetic mouse models, the blood glucose level was 19 mM or more when not fasting, and polyuria and diabetes, considered signs of diabetes, were observed. […]
Normal mice (Normal), midazolam-administered normal mice (Midazolam), diabetic mice (Diabetic), midazolam-administered diabetic mice (Diabetic+Midazolam), Trolox-administered diabetic mice (Diabetic+Trolox) and NAC-administered diabetic mice (Diabetic+NAC) were subjected to cervical dislocation and the eyeballs were extracted therefrom and rapidly frozen with an OCT compound (Sakura Finetek, Torrance, Calif., USA). Using a microtome-cryostat (Leica Biosystems, Wetzlar, Germany), 10 μm-thick non-fixed cryosections were prepared, treated with a solution of 5 μM dihydroethidium (DHE, Invitrogen-Molecular Probes) in PBS, stained for 30 min, and measured using confocal microscopy. The results of ROS concentrations quantitatively analyzed using the fluorescence intensity of the cryosections are shown in FIGS. 12 and 13.

[2] = test system: retinal vessels of diabetic mice; experiment: Fluorescein angiography for mouse model (retinal vascular leakage); format: in vivo, C57BL/6 mice; conditions: intravitreal 2 μL of 2 mM midazolam, 2 μM cystamine or 500 mM MDC (FIGS. 16, 17)

In the case of `Cc1ncc2n1-c1ccc(Cl)cc1C(c1ccccc1F)=NC2` [midazolam], the “VE-cadherin concentration / adherens junction disruption due to VEGF” value (VE-cadherin) is reported as “exhibited the effect of preventing the adherens junction disruption due to VEGF”, the “FITC-dextran diffused into lower chamber (cell permeability) / adherens junction disruption due to VEGF” value [1] is reported as “prevented the adherens junction disruption due to VEGF and thus FITC-dextran was not diffused” and the “ROS concentration in retina compared to normal mice” value (retinas of diabetic mice) is reported as “an increase in ROS concentration was suppressed”. The “retinal vascular leakage compared to normal mice” value [2] was “vascular leakage was prevented”.
